# Measurements as given in patent US9005627B2, “Contiguous overlapping peptides for treatment of ragweed pollen allergy” (Anergis S.A., priority 2011, dated 2015).
# “Also recorded” adds a separate entry of the source. No end group written: not given here.
# B1: nAmb a 1: ragweed pollen major allergen purified from ragweed pollen by Protein Labs; positive control (protein)
# chain: AEDLQEILPVNETRRLTTSGAYNIIDGCWRGKADWAENRKALADCAQGFGKGTVGGKDGDIYTVTSELDDDVANPKEGTLRFGAAQNRPLWIIFERDMVIRLDKEMVVNSDKTIDGRGAKVEIINAGFTLNGVKNVIIHNINMHDVKVNPGGLIKSNDGPAAPRAGSDGDAISISGSSQIWIDHCSLSKSVDGLVDAKLGTTRLTVSNSLFTQHQFVLLFGAGDENIEDRGMLATVAFNTFTDNVDQRMPRCRHGFFQVVNNNYDKWGSYAIGGSASPTILSQGNRFCAPDERSKKNVLGRHGEAAAESMKWNWRTNKDVLENGAIFVASGVDPVLTPEQSAGMIPAEPGESALSLTSSAGVLSCQPGAPC
# What was measured:
# [1] = Solubility characteristics of COPs
# Procedure: (§1) Peptides were resuspended either in water at 2 mg/ml or at 10 to 20 mg per ml in DMSO as indicated and frozen in aliquots.
# [2] = test system: human basophils loaded with serum from a patient allergic to ragweed pollen; assay: Human basophil degranulation test (Basotest); assay type: cell-based
# Procedure: BasotestR (ORPEGEN Pharma Heidelberg, Germany) was used for the quantitative determination of in vitro basophile degranulation. Heparinized blood (100 μl) from a non-allergic donor (ACT) was first incubated with serum (25 μl) from a patient allergic to ragweed pollen (FB) for 2 hours. The mix was further stimulated with buffer (reagent B) for 10 min at 37° C., and then with or without chemotactic peptide formylmethionylleucylphenylalanine (fMLP) as positive and negative controls respectively. Aliquots of blood were incubated in parallel with 100 μl allergen solution diluted in a saline solution for 20 min at 37° C. A dose response curve was performed with 250-12.5-0.625-0.031 nano-molar nAmb a 1 (added concentration) as well as starting 10 fold higher with AllerR mixed Sets (AllerR1-R6 and AllerR7-11). The activation process was stopped by incubating the blood samples at 4° C. for 5 min. The samples were then incubated for 20 min at +4° C.) (dark condition with 20 μl of phycoerythrin (PE)-conjugated anti-IgE and fluorescein isothyocyanate (FITC)-conjugated anti-gp53 (CD63). […] Cells were washed twice with PBS solution and resuspended in 200 μl of PBS solution and analyzed within 2 h by flow cytometry (FASC-LSRII-Becton Dickinson). The basophile population was gated on the PE anti-IgE positive cells and the expression of gp53 (CD63) was analyzed on this population. […]
# [3] = test system: Amb a 1 specific IgE in serum of subjects allergic to ragweed pollen; assay: Competition ELISA for IgE binding on nAmb a 1 coated plates; parameters: species or system human
# Procedure: Recombinant Amb a 1 at 0.5 μg/ml (purified nAmb a 1 obtained from Protein Labs, San Diego) was coated overnight on 96-well Nunc Maxisorp® immunoplates (Life Technologies, Basel, Switzerland). After blocking with 1% BSA, either ten-fold, twenty-fold, thirty-fold or forty-fold dilutions of patient serum were added depending on specific IgE content. […] The sera of three allergic patients were selected for high IgE level and clear signal over background and used to test for competition with the peptides. Serial dilutions of each set of COPs, namely Set A; Set B and Set C, at indicted concentrations were pre-incubated with the three selected sera overnight at 4° C. Sera were then incubated on nAmb a 1 coated 96-well plates and residual IgE binding was determined as described above. nAmb a 1 dilutions were used as control for inhibition, whereas BSA was used as control for possible non-specific inhibition.
# [4] = pH 7
# Procedure: as §1
# [5] = test system: Balb/c mice sensitized with nAmb a 1; assay: Anaphylactic response in sensitized mice (sensitization and challenge); assay type: in vivo
# Procedure: Balb/c mice were sensitized by repeated injections of low doses (1 ug) of the allergen Amb a 1 by 5 subcutaneous injections at 14 days interval. […] Anaphylactic symptoms were scored using a scale of 6 grades (0, no symptoms to 5, death) adapted from Sade et al. J Investig Allergol Clin Immunol; 17(6): 379-385 (2007). Rectal temperature was monitored at 15 minutes intervals for 60 minutes after challenge using a digital thermometer. Citrate buffer was used as control for sensitization and challenge leading to two additional mice groups.
# [6] = test system: Rat Basophilic Leukemia cells (RBL-30/25) expressing human IgE receptor, pre-loaded with sera from allergic patients; assay: RBL cell degranulation (beta-hexosaminidase release); assay type: cell-based; conditions: sera from panel of allergic patients (21 sera); FIG. 3
# Procedure: Alternatively, degranulation was monitored using Rat Basophilic Leukemia cells (RBL) expressing parts of the human IgE receptor pre-loaded with sera from allergic patients (Vogel et al, Allergy 60: 1021-1028 (2005)). Essentially, RBL-30/25 cells were pre-incubated overnight with sera from patients from the region around Lyon (France, Biomnis) as well as from US (Plasma Lab International). To increase and stabilize the secretion of beta-hexosaminidase, 50% D2O was added to the Tyrode's buffer used for the assay. beta-hexosaminidase release after IgE crosslinking with an anti-IgE antibody was set to 100% release reflecting the ability of the cells to release beta-hexosaminidase upon IgE crosslinking. Amb a 1-specific release is given as percent of IgE mediated release.
molecule,measurement,setting,value
DVANPKEGTLRFGAAQNRPLWIIFERDMVIRLDKEMVVNSDKTIDGRGAKVE [AllerR2],solubility,[1]; water,2000 µg/mL
TIDGRGAKVEIINAGFTLNGVKNVIIHNINMHDVKVNPGGLIK [AllerR3],solubility,[1]; water,2000 µg/mL
TSGAYNIIDGCWRGKADWAENRKALADCAQGFGKGTVGGKDGDIYTVTSELDDDVANPK (cysteines drawn unpaired) [AllerR1],solubility,[1]; water,2000 µg/mL
VDAKLGTTRLTVSNSLFTQHQFVLLFGAGDENIEDRGMLATVAFNTFTDN [AllerR4.2],solubility,"[1]; 5 mM HCl, 0.1 M NaOH and 0.1 M citrate buffer pH 5.6, pH 5.6",1000 µg/mL
same,Solubility (in words),[1]; solvent as stated in the value,not soluble in H2O
AGSDGDAISISGSSQIWIDHCSLSKSVDGLVDAKLGTTRLTVSNSLFTQHQFVLLFGAGDENIEDRGMLATVAFNTFTDN [AllerR4],IgE binding (in words),[2]; as seen in degranulation assays,did not bind IgE
same,IgE binding (in words),[3]; as seen in competition ELISA,did not bind IgE
FVLLFGAGDENIEDRGMLATVAFNTFTDNVDQRMPRCRHGFFQVVNNNYDKWGSYAIGGSASPTILSQGNRFCAPDERS [AllerR10],Conc. (solubility),[4],2000 µg/mL
B1,"Basophil degranulation (CD63 expression), in words","[2]; human basophils loaded with serum FB, FIG. 2",induce human basophil degranulation
same,Anaphylactic symptom scores (scale 0 to 5),"[5]; challenge 7 days after last sensitizing injection, Amb a 1 30 μg/ml or AllerR 34 μg/ml, observed one hour, FIG. 5 panel A",significant increase in symptom scores already after 15 min
same,Rectal (body) temperature after challenge,"[5]; measured every 15 min, FIG. 5 panel B",marked decrease in rectal temperature
same,"IgE mean levels, increase over pre-immune following sensitization","[5]; mice sensitized by repeated s.c. injections of nAmb a 1, FIG. 5 panel C",about 500 fold
same,Concentration range showing competition,"[3]; panel of sera from 22 patients allergic to ragweed, data not shown",10^−11 to 10^−8 molar
same,Concentrations at which competition with serum IgE occurs,"[3]; sera from three allergic patients (17794, 18342, FB), FIG. 1",10^−11 to 10^−8 M
same,"Degranulation of RBL cells, in words",[6],triggered degranulation to various extents; also recorded: triggered degranulation to various extend
